# Reference: ChEMBL document CHEMBL5375979, “Chemical, Biochemical, Cellular, and Physiological Characterization of Leucettinib-21, a Down Syndrome and Alzheimer's Disease Drug Candidate” (J Med Chem, 2023)
# Tests used:
# [1] = target: Homeodomain-interacting protein kinase 3 (Homo sapiens, UniProt Q9H422)
# Description: Inhibition of human HIPK3 assessed as remaining activity by eurofins-cerep kinase profiler analysis
# [2] = target: Cyclin-G-associated kinase (Homo sapiens) (UniProt O14976); conditions: dose 10.0 µM
# [3] = target: Dual specificity protein kinase CLK4 (Homo sapiens, UniProt Q9HAZ1)
# [4] = target: Cyclin-dependent kinase-like 2 (Homo sapiens, UniProt Q92772)
# Description: Inhibition of human CDKL2 assessed as remaining activity by eurofins-cerep kinase profiler analysis
# [5] = target: T1, AP2-associated protein kinase 1 (Homo sapiens, UniProt Q2M2I8); conditions: dose 10.0 µM
# [6] = target: Cyclin-dependent kinase-like 5 (Homo sapiens, UniProt O76039)
# Description: Inhibition of human CDKL5 assessed as remaining activity by eurofins-cerep kinase profiler analysis
# [7] = target: Cyclin-dependent kinase-like 4 (Homo sapiens, UniProt Q5MAI5)
# Description: Inhibition of human CDKL4 assessed as remaining activity by eurofins-cerep kinase profiler analysis
# [8] = target: Homeodomain-interacting protein kinase 1 (Homo sapiens, UniProt Q86Z02)
# Description: Inhibition of human HIPK1 assessed as remaining activity by eurofins-cerep kinase profiler analysis
# [9] = target: T1, AP2-associated protein kinase 1
# Description: Inhibition of human AAK1 assessed as remaining activity by eurofins-cerep kinase profiler analysis
# [10] = target: Aurora kinase A (Homo sapiens) (UniProt O14965); conditions: dose 10.0 µM
# [11] = target: Serine/threonine-protein kinase TAO3 (Homo sapiens, UniProt Q9H2K8)
# Description: Inhibition of human TAO3 assessed as remaining activity by eurofins-cerep kinase profiler analysis
# [12] = target: Tribbles homolog 2 (Homo sapiens, UniProt Q92519)
# Description: Inhibition of human TRB2 assessed as remaining activity by eurofins-cerep kinase profiler analysis
# [13] = target: T2, Dual specificity tyrosine-phosphorylation-regulated kinase 2 (Homo sapiens, UniProt Q92630)
# T2 sequence (Q92630 whole entry): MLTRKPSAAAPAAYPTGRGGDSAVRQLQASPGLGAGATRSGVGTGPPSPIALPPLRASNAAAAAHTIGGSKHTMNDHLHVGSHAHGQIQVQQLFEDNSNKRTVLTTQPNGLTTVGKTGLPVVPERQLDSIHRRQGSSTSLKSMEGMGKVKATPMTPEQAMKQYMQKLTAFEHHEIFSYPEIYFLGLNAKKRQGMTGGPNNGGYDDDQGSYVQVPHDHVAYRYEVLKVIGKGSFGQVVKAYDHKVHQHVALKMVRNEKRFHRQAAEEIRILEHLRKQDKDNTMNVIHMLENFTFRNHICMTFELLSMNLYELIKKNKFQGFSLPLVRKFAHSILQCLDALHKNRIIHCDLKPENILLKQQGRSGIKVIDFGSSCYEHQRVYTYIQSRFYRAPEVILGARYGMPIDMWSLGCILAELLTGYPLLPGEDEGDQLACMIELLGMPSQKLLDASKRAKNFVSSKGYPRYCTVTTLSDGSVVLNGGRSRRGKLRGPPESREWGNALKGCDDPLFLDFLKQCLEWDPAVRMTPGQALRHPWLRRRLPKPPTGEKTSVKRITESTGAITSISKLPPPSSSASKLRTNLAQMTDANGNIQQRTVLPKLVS
# Description: Inhibition of human DYRK2 assessed as remaining activity by eurofins-cerep kinase profiler analysis
# [14] = target: Casein kinase II subunit alpha (Homo sapiens) (UniProt P68400); conditions: dose 10.0 µM
# [15] = target: T3, Dual specificity protein kinase CLK1 (Homo sapiens, UniProt P49759); conditions: dose 10.0 µM
# [16] = target: Maternal embryonic leucine zipper kinase (Homo sapiens) (UniProt Q14680); conditions: dose 10.0 µM
# [17] = target: T3, Dual specificity protein kinase CLK1
# [18] = target: BMP-2-inducible protein kinase (Homo sapiens) (UniProt Q9NSY1); conditions: dose 10.0 µM
# [19] = target: Serine/threonine-protein kinase PIM (Homo sapiens) (UniProt P11309+Q9P1W9+Q86V86); conditions: dose 10.0 µM
# [20] = target: Serine/threonine-protein kinase PLK4 (Homo sapiens) (UniProt O00444); conditions: dose 10.0 µM
# [21] = target: Dual specificity protein kinase CLK2 (Homo sapiens, UniProt P49760)
# Description: Inhibition of human CLK2 assessed as remaining activity by eurofins-cerep kinase profiler analysis
# [22] = target: T4, Dual specificity tyrosine-phosphorylation-regulated kinase 3 (Homo sapiens, UniProt O43781)
# T4 sequence (O43781 whole entry): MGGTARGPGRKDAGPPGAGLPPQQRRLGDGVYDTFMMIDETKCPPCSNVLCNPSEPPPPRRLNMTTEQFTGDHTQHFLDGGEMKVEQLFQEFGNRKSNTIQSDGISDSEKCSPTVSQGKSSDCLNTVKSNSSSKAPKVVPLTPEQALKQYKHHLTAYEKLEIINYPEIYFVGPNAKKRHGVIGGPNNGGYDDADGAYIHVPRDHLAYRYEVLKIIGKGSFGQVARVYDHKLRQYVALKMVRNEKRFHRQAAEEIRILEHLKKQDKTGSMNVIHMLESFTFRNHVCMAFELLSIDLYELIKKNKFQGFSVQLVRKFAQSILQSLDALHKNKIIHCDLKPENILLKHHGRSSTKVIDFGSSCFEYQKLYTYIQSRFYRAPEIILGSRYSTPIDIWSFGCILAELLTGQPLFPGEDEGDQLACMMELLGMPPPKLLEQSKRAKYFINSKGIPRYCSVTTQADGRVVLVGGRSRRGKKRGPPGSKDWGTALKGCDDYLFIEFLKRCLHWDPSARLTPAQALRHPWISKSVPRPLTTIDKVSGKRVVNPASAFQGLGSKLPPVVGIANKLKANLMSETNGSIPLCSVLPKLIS
# Description: Inhibition of human DYRK3 assessed as remaining activity by eurofins-cerep kinase profiler analysis
# [23] = target: Serine/threonine-protein kinase haspin (Homo sapiens, UniProt Q8TF76)
# Description: Inhibition of human HASPIN assessed as remaining activity by eurofins-cerep kinase profiler analysis
# [24] = target: Serine/threonine-protein kinase TAO2 (Homo sapiens, UniProt Q9UL54)
# Description: Inhibition of human TAO2 assessed as remaining activity by eurofins-cerep kinase profiler analysis
# [25] = target: Serine/threonine-protein kinase TAO1 (Homo sapiens, UniProt Q7L7X3)
# Description: Inhibition of human TAO1 assessed as remaining activity by eurofins-cerep kinase profiler analysis
# [26] = target: Death-associated protein kinase 3 (Homo sapiens) (UniProt O43293); conditions: dose 10.0 µM
# [27] = target: Mitogen-activated protein kinase 15 (Homo sapiens) (UniProt Q8TD08); conditions: dose 10.0 µM
# [28] = target: Dual specificity protein kinase CLK3 (Homo sapiens, UniProt P49761); conditions: dose 10.0 µM
# [29] = target: Calcium/calmodulin-dependent protein kinase kinase 2 (Homo sapiens) (UniProt Q96RR4); conditions: dose 10.0 µM
# [30] = target: Homeodomain-interacting protein kinase 4 (Homo sapiens, UniProt Q8NE63)
# Description: Inhibition of human HIPK4 assessed as remaining activity by eurofins-cerep kinase profiler analysis
# Sequence of Serine/threonine-protein kinase PIM (Homo sapiens) (P11309 whole entry, looked up): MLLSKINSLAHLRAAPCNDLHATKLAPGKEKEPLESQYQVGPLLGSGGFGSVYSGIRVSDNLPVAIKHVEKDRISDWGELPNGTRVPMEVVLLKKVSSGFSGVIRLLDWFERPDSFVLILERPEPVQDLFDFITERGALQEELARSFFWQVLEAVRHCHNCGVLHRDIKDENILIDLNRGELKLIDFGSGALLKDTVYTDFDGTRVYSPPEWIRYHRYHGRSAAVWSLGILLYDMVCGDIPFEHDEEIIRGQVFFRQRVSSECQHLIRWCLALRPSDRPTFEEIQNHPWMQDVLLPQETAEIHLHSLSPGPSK
# Sequence of Serine/threonine-protein kinase PIM (Homo sapiens) (Q9P1W9 whole entry, looked up): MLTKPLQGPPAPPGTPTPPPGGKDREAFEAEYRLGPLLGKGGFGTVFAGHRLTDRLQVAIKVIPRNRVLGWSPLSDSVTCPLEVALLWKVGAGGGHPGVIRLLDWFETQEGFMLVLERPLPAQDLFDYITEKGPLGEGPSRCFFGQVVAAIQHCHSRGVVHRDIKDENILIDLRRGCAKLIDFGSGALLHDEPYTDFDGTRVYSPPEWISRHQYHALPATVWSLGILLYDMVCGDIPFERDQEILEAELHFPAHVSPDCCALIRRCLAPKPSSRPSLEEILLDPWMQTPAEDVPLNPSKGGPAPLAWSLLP
# Sequence of Serine/threonine-protein kinase TAO2 (Q9UL54 whole entry): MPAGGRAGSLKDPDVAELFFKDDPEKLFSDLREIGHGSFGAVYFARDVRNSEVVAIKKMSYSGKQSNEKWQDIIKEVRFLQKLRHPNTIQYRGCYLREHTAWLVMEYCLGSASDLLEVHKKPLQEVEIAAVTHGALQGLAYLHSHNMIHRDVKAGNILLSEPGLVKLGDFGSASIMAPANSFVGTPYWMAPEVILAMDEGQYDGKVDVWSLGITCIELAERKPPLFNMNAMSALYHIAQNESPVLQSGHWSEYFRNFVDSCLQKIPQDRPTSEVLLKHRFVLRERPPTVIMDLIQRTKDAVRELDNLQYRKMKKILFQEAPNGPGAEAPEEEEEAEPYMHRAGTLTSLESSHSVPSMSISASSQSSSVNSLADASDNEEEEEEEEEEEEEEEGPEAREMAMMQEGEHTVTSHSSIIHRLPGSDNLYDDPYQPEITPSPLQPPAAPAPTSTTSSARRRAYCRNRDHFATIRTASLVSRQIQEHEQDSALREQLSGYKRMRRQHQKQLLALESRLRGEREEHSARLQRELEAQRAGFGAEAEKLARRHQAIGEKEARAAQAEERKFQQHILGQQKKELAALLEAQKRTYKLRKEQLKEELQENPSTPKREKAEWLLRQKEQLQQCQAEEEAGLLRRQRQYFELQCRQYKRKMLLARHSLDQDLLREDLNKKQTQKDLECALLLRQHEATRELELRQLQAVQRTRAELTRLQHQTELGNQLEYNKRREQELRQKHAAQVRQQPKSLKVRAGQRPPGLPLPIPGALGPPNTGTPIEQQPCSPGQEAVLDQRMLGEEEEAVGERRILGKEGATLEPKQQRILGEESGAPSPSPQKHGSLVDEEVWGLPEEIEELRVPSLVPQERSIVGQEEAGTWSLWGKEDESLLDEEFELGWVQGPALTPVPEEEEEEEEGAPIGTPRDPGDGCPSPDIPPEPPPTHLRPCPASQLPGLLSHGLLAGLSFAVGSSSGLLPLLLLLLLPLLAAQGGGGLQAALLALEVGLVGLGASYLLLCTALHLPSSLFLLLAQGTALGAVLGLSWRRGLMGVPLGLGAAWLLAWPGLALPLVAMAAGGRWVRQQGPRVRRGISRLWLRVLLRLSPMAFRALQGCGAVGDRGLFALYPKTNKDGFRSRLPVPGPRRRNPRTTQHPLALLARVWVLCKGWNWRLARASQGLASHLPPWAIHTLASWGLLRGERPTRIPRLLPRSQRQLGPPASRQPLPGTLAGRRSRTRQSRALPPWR
# Sequence of Casein kinase II subunit alpha (Homo sapiens) (P68400 whole entry, looked up): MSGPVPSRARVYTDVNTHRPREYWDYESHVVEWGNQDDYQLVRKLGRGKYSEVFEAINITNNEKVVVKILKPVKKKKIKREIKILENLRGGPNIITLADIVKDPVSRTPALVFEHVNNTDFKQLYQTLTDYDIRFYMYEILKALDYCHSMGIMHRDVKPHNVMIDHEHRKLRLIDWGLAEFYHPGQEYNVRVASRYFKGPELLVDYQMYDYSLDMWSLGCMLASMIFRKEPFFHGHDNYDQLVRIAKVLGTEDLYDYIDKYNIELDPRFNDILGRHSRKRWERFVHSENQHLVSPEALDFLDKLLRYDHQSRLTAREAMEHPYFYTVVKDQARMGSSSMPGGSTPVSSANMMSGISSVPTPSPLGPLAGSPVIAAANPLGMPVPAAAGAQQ
# Sequence of Dual specificity protein kinase CLK4 (Q9HAZ1 whole entry): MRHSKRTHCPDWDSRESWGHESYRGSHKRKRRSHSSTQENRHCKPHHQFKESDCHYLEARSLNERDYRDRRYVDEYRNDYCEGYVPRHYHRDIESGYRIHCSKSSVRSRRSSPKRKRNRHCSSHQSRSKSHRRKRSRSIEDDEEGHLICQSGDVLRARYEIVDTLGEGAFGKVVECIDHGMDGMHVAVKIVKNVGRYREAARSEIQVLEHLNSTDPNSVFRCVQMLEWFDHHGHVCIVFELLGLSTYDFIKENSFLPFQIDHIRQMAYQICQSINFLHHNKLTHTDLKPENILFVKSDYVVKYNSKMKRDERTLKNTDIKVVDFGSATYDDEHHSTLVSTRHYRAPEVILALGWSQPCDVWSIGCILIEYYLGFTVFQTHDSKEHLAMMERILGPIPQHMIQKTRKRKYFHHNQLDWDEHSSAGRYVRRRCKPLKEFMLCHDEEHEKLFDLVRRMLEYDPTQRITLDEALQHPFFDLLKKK
# Sequence of Cyclin-dependent kinase-like 2 (Q92772 whole entry): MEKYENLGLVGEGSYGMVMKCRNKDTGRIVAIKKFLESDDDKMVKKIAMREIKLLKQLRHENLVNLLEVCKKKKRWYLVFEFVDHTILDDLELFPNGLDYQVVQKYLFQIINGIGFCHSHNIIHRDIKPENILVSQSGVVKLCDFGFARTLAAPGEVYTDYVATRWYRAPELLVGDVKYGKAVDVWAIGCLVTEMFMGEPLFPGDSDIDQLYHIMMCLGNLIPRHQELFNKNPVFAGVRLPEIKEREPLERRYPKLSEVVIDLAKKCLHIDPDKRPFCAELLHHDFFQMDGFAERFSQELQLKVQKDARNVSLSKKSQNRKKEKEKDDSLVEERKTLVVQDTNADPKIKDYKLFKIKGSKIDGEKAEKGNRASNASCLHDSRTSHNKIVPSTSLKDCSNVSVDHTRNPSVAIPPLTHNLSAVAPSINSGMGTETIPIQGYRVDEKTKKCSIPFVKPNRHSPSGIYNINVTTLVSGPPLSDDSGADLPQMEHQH
# Sequence of Serine/threonine-protein kinase haspin (Q8TF76 whole entry): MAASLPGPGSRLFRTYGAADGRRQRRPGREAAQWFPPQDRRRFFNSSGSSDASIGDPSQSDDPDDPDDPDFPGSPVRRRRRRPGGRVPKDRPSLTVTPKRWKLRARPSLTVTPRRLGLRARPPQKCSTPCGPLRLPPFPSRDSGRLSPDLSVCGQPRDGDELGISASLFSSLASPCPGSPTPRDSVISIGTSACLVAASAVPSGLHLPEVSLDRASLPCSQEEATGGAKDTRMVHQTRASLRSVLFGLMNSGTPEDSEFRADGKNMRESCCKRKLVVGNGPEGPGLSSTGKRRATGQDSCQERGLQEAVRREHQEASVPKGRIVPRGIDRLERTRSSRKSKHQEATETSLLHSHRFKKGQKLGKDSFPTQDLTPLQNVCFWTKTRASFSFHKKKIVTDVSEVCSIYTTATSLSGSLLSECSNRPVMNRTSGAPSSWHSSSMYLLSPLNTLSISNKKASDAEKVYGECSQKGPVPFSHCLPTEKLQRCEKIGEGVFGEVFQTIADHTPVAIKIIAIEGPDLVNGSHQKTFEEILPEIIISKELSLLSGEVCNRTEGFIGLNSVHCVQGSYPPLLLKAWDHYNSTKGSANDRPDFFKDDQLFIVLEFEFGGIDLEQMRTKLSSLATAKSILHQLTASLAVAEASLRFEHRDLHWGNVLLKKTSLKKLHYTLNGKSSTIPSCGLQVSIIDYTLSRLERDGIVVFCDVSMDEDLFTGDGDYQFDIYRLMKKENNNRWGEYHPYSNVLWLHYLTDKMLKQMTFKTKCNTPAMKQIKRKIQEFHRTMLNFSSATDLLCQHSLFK
# Sequence of Death-associated protein kinase 3 (Homo sapiens) (O43293 whole entry, looked up): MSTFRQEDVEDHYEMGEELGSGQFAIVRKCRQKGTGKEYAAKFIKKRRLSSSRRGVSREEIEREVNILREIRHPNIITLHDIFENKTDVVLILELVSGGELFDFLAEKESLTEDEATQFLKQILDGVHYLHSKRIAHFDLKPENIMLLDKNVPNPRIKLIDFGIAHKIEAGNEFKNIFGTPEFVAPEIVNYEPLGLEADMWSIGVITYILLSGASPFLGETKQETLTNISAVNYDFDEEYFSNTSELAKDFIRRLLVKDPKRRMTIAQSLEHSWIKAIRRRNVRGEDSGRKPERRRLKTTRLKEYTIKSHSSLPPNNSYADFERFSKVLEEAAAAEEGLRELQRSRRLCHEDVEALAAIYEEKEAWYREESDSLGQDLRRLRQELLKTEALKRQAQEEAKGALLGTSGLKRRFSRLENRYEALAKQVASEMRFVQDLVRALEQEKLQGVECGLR
compound,measurement,setting,value
COC[C@@H](CC(C)C)NC1=N/C(=C\c2ccc3scnc3c2)C(=O)N1,IC50,[1],> 10 µM
same,ΔTm,[2],3.5 °C
same,IC50,[3],> 1 µM
same,IC50,[4],> 1 µM
same,ΔTm,[5],6 °C
same,IC50,[6],> 10 µM
same,IC50,[7],> 1 µM
same,IC50,[8],> 10 µM
same,IC50,[9],Not Active
same,ΔTm,[10],1.4 °C
same,IC50,[11],> 10 µM
same,IC50,[12],> 1 µM
same,IC50,[13],> 1 µM
same,ΔTm,[14],1.4 °C
same,ΔTm,[15],3 °C
same,ΔTm,[16],0.4 °C
same,IC50,[17],> 10 µM
same,ΔTm,[18],4 °C
same,ΔTm,[19],4.5 °C
same,ΔTm,[20],1.4 °C
same,IC50,[21],> 1 µM
same,IC50,[22],> 1 µM
same,IC50,[23],> 10 µM
same,IC50,[24],> 10 µM
same,IC50,[25],> 10 µM
same,ΔTm,[26],1.2 °C
same,ΔTm,[27],4.7 °C
same,ΔTm,[28],0.3 °C
same,ΔTm,[29],-1.2 °C
same,IC50,[30],> 10 µM
